Laboratory results: patent US8012499B2, “Anthranilamides for controlling invertebrate pests” (E.I. du Pont de Nemours and Company, priority 2005, dated 2011)

Row | melting point | SMILES
1 | 223 to 227 °C | CCN(CC)C(=O)C(=O)c1cc(C)cc(C)c1NC(=O)c1cc(C(F)(F)F)nn1-c1ncccc1Cl [Example 2, 1-(3-chloro-2-pyridinyl)-N-[2-[(diethylamino)oxoacetyl]-4,6-dimethylphenyl]-3-(trifluoromethyl)-1H-pyrazole-5-carboxamide]
2 | 234 °C (dec.) | C/N=C(/C(=O)NC)c1cc(Cl)cc(C)c1NC(=O)c1cc(Br)nn1-c1ncccc1Cl [Example 6, 3-bromo-N-[4-chloro-2-methyl-6-[(1E)-2-(methylamino)-1-(methylimino)-2-oxoethyl]phenyl]-1-(3-chloro-2-pyridinyl)-1H-pyrazole-5-carboxamide]
3 | 247 °C | CNC(=O)C(=O)c1cc(Cl)cc(C)c1NC(=O)c1cc(Br)nn1-c1ncccc1Cl [Example 7, 3-bromo-N-[4-chloro-2-methyl-6-[(methylamino)oxoacetyl]phenyl]-1-(3-chloro-2-pyridinyl)-1H-pyrazole-5-carboxamide]
